A value given as a limit tells only on which side of the number the result lay.

This assay has as its system N27 rat dopaminergic neural cells. The assay is described as follows: MTT assay in N27 rat dopaminergic neural cells: inhibition of RSL3-induced cell death (ferroptosis). In kind it is cell-based. To be noted: Rattus norvegicus, N27, 24 h, ferroptosis induced by 0.5 μM RSL3, 24 hours, viability by MTT. How it is done: MTT Assay in N27 Rat Dopaminergic Neural Cells
N27 rat dopaminergic neural cells (Millipore, SCC048) were cultured in RPMI-1640 media (Wisent, 350-000) supplemented with 1×GlutaMAX (Gibco, 35050-061), 10% FBS (embryonic stem cell qualified; Wisent, 920-040), and 1× Penicillin-Streptomycin (Wisent, 450-201). Cells were grown in humidified tissue culture incubator at 37° C. with 5% CO2, for up to 10 passages. To evaluate the ability of test compounds to inhibit RSL3-induced cell death, N27 cells were seeded in clear 96-well tissue culture plates (Sarstedt, 83.3924) at a density of 15,000 cells/well. On the next day, the medium was changed to fresh complete RPMI-1640. Eight-point dilution series of test compounds were added to the cells. Then, ferroptosis was induced by addition of 0.5 μM RSL3 (vehicle-treated cells served as control). Ferrostatin-1 (Fer-1) was included in each assay as control inhibitor of ferroptosis. Plates were incubated for 24 hours at 37° C. in a tissue culture incubator, then cell viability was determined by MTT assay. Briefly, Thiazolyl Blue Tetrazolium Bromide [3-(4,5-dimethylthiazol-2-yl)-2,5-diphenyltetrazolium bromide or “MTT” ] (Sigma) stock solution (5 mg/mL in PBS, sterilized by filtration) was diluted 1:1 with complete growth medium, and added on the cells to a final concentration of 0.5 mg/mL. Cells were incubated with MTT for 4 hours at 37° C., protected from light, in a humidified, 5% CO2 atmosphere. Medium was then completely removed from the wells by gentle aspiration and converted MTT formazan crystals were dissolved in 150 μL of DMSO. Absorbance of converted dye was measured at 595 nm with background subtraction at 690 nm using the BioTek Cytation5 Microplate Reader. Blank reading (absorbance from wells containing media and vehicle only, no cells) was removed from all sample wells. Viability was calculated as a percentage of control cells (vehicle-treated cells were set as 100% viability). Dose-response curves were drawn and IC50 values were calculated using GraphPad Prism software, version 7.
In general terms: Formazan colour is commonly taken as a measure of viable cells.

As for `CC(C)=Cc1nc(C)nc(NC2CCCC2)c1N` [Compound F-99, N^4-cyclopentyl-2-methyl-6-(2-methylprop-1-enyl)pyrimidine-4,5-diamine], the IC50 is greater than 625 nM.

As to `c1ncc(-c2ncc(NC3COC3)c(NC3CCCC3)n2)cn1` [Compound F-82, N^4-cyclopentyl-N^5-(oxetan-3-yl)-2-pyrimidin-5-yl-pyrimidine-4,5-diamine], the IC50 was greater than 625 nM.

`Cc1ccc(-c2nc(NC3CCCC3)c3c(n2)C(=O)N(C)C(C)(C)N3)cc1` [Compound K-36, 8-(cyclopentylamino)-2,2,3-trimethyl-6-(p-tolyl)-1H-pyrimido[5,4-d]pyrimidin-4-one] yielded an IC50 of 525 nM.

In the case of `CCCCC(O)c1nc2c(c(NC(C)(C)C)n1)NCCC2` (centres unmarked) [Compound A-00, 1-[4-(tert-butylamino)-5,6,7,8-tetrahydropyrido[3,2-d]pyrimidin-2-yl]pentan-1-ol], the IC50 was found to be 139 nM.

On to `c1cc(-c2nc3c(c(NC4CCCC4)n2)NCCC3)ccn1` [Compound A-34, N-cyclopentyl-2-(4-pyridyl)-5,6,7,8-tetrahydropyrido[3,2-d]pyrimidin-4-amine], for which the IC50 worked out at 57 nM.

`CCOC(=O)c1ccc(NC2CCCCC2)c(N)n1` [Compound B-626, FER-1] had an IC50 of 108 nM.

With `CN(C)C(=O)c1ccc(-c2ccc(NC3CCC3)c(NC3(C)CCOC3)n2)cc1` (centres unmarked) [Compound P-53, 4-[5-(cyclobutylamino)-6-[(3-methyltetrahydrofuran-3-yl)amino]-2-pyridyl]-N,N-dimethyl-benzamide], the IC50 stood at 24 nM.

`CCOC(=O)c1cc2c(c(C(=O)C(F)(F)F)c1)NC(C)(C)C=C2` [Compound B-101, Ethyl 2,2-dimethyl-8-(2,2,2-trifluoroacetyl)-1,2-dihydroquinoline-6-carboxylate] gave an IC50 greater than 3000 nM.

The compound `CC(C)(C)Nc1nc(OCC(F)(F)F)cc2c1NCC(C(F)(F)F)C2` (centres unmarked) [Compound S-101, N-tert-butyl-6-(2,2,2-trifluoroethoxy)-3-(trifluoromethyl)-1,2,3,4-tetrahydro-1,7-naphthyridin-8-amine] showed an IC50 of 1260 nM.

With `CCCCC(=O)c1nc2c(c(NC(C)(C)C)n1)NCCC2` [Compound A-06, 1-[4-(tert-butylamino)-5,6,7,8-tetrahydropyrido[3,2-d]pyrimidin-2-yl]pentan-1-one], 76 nM corresponded to half-maximal inhibition (IC50).

Compound `CC(=O)c1nc2c(c(NC3CCCC3)n1)NCCC2` [Compound C-92, 1-[4-(cyclopentylamino)-5,6,7,8-tetrahydropyrido[3,2-d]pyrimidin-2-yl]ethanone] yielded an IC50 of 2070 nM.

Compound `c1ncc(-c2ccc(NC3COC3)c(NC3CCCC3)n2)cn1` [Compound H-84, N^2-cyclopentyl-N^3-(oxetan-3-yl)-6-pyrimidin-5-yl-pyridine-2,3-diamine] gave an IC50 of 32 nM.

For the compound `CC1(Nc2nc(-c3cccnc3)ccc2NC2CCOC2)CCOC1` [Compound L-42, N^2-(3-methyltetrahydrofuran-3-yl)-6-(3-pyridyl)-N^3-tetrahydrofuran-3-yl-pyridine-2,3-diamine], half-maximal inhibition (IC50) was put at 285 nM.

In turn, `COc1ccc(-c2ccc(NC3COC3)c(NC3CCCC3)n2)cc1` [Compound H-87, N^2-cyclopentyl-6-(4-methoxyphenyl)-N^3-(oxetan-3-yl)pyridine-2,3-diamine] showed an IC50 of 3 nM.

For `CCCC(=O)c1ccc(NC(C)CC)c(NC2CCCC2)n1` [Compound L-34, 1-[6-(cyclopentylamino)-5-(sec-butylamino)-2-pyridyl]butan-1-one], the midpoint of inhibition, the IC50, lay at 21 nM.

For `Cc1ccc(-c2ccc(NC(C)(C)C)c(NC(C)(C)C)n2)cc1` [Compound L-03, N^2,N^3-di-tert-butyl-6-(p-tolyl)pyridine-2,3-diamine], it took 14 nM to reach half-maximal inhibition (IC50).

For the compound `C(#Cc1nc2c(c(NC3CCCC3)n1)NCCC2)c1ccccc1` [Compound C-91, N-cyclopentyl-2-(2-phenylethynyl)-5,6,7,8-tetrahydropyrido[3,2-d]pyrimidin-4-amine], the IC50 stood at 35 nM.

The term IC50 denotes the concentration that inhibits the measured activity by half. Low values mean higher potency, high ones lower potency.

The values are drawn from patent publication US20220144826A1, “Heteroaromatic and Heterobicyclic Aromatic Derivatives for the Treatment of Ferroptosis-Related Disorders” (COLLABORATIVE MEDICINAL DEVELOPMENT, LLC, priority 2019, published 2022).
